Test in all cases: phosphatase activity assay
Type in all cases: biochemical
What all share (conditions): 10 mM pNPP

In one assay the target is T1, ScPpz1 (Saccharomyces cerevisiae, UniProt P26570).
T1 construct: gene PPZ1; full length, 692 residues, GST fusion from E. coli BL21(DE3) RIL, GST tag cut by PreScission
T1 sequence (P26570 1-692): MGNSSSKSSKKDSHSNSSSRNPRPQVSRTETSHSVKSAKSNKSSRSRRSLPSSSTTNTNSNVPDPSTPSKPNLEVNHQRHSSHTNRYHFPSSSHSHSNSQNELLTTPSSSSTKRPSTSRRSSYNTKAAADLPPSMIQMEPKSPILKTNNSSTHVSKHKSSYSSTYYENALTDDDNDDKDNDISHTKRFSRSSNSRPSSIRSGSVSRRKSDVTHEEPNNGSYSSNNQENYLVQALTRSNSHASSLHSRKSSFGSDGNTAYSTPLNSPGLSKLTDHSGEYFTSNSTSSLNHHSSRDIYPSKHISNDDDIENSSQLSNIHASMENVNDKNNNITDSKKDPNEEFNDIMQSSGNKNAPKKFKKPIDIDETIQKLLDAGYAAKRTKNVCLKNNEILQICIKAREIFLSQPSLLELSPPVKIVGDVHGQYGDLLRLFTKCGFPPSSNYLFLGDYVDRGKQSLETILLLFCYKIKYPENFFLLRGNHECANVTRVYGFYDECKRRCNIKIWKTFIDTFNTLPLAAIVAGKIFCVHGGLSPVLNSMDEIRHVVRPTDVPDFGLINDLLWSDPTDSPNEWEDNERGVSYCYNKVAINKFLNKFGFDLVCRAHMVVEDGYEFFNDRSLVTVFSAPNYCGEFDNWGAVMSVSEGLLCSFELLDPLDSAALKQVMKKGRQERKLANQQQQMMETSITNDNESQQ

For a further assay, the target named is T2, UmPpz1-s (Mycosarcoma maydis, UniProt A0A0D1DW62).
T2 construct: gene UMAG_04827; short version lacking residues 1-8 (starts at Met9), pGEX-6p-1, E. coli BL21(DE3) RIL, GST tag cut by PreScission
T2 sequence (A0A0D1DW62 9-497): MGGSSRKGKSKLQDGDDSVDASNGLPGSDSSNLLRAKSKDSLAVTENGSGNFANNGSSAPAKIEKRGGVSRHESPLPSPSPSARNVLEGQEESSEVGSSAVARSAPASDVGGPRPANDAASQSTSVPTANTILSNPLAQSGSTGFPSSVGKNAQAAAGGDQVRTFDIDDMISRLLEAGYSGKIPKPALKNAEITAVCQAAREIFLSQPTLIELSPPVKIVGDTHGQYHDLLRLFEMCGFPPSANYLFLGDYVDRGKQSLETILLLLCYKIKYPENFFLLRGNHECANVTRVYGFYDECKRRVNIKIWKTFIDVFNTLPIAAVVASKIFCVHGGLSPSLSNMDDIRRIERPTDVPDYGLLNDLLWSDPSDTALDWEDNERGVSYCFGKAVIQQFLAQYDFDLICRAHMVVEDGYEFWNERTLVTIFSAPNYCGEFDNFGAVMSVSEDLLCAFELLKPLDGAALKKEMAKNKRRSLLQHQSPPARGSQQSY

For the next assay, the target named is T3, UmPpz1 (Mycosarcoma maydis, UniProt A0A0D1DW62).
T3 construct: gene UMAG_04827; full-length ORF, 497 residues, from FB1 genomic DNA in pGEX-6p-1, E. coli BL21(DE3) RIL, GST tag cut by PreScission
T3 sequence (A0A0D1DW62 1-497): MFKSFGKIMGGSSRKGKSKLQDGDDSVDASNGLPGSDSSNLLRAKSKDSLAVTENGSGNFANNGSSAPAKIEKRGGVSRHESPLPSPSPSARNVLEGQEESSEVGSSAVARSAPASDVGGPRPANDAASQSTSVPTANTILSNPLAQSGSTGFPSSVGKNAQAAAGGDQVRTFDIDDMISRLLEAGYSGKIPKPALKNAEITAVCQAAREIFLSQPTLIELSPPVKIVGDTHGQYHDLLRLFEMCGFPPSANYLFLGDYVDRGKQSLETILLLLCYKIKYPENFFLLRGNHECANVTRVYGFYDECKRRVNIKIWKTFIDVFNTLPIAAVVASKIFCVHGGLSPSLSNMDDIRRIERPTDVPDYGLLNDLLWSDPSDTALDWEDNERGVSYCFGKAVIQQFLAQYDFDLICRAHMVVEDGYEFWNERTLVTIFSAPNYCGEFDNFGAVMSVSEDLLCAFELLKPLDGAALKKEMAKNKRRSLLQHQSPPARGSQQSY

On to `O=[N+]([O-])c1ccc(OP(=O)(O)O)cc1` [p-nitrophenylphosphate], for which the phosphatase activity assay result on ScPpz1 is “substrate pNPP which was similar to that observed for ScPpz1”; at UmPpz1-s it was “The recombinant enzyme (as well as UmPpz1-s) showed phosphatase activity against the synthetic substrate pNPP”; at UmPpz1, “showed phosphatase activity against the synthetic substrate pNPP”.

(Values after PMC6695811, “Protein Phosphatase Ppz1 Is Not Regulated by a Hal3-Like Protein in Plant Pathogen Ustilago maydis” (International Journal of Molecular Sciences, 2019).)
